Laboratory results reported in PubChem BioAssay AID2202554 (NIEHS Division of Translational Toxicology (DTT)).
Records with an inconclusive call do not appear. Calls of active or inactive are those of the source. No rule for the calls is given here.

These compounds were tested on S. typhimurium/E. coli reverse mutation, colony counts (assay: Bacterial reverse mutation test (aka Ames test) summary data).
Outline: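 S. typhimurium his⁻ strains (TA97–TA1538) and E. coli WP2 uvrA pKM101 trp⁻, dosed over a range with or without rat, hamster or mouse liver S9. Preincubated 20 min at 37° C (or plate incorporation), plated in agar, incubated usually two days. Revertant colonies counted against negative controls.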
With BrC/C=C/CBr the outcome was “active; positive”.
With c1ccc(Nc2ccc(Nc3ccccc3)cc2)cc1 the outcome was “active; positive”.
CCCCc1ccc(N=Cc2ccc(OC)cc2)cc1 was tested, and the outcome was “active; positive”.
OCCC(F)(F)C(F)(F)C(F)(F)C(F)(F)C(F)(F)C(F)(F)C(F)(F)C(F)(F)C(F)(F)C(F)(F)F was tested, and the outcome was “inactive; negative”.
For CCCCC1C(=O)N(c2ccccc2)N(c2ccccc2)C1=O, the outcome was “inactive; negative”.
For C=CC(=O)OCC, the outcome was “active; weakly positive”.
Cc1cc([N+](=O)[O-])ccc1N was tested, and the outcome was “active; positive”.
In the case of Nc1ccc(N=Nc2cccc(N=Nc3ccc(N)cc3N)c2)c(N)c1, the outcome is reported as “active; positive”.
Cc1ccccc1C=O was tested, and the outcome was “inactive; negative”.
For O=[N+]([O-])c1cccc2ccccc12, the outcome was “active; positive”.
C[S+](CC[C@H](N)C(=O)[O-])C[C@H]1O[C@@H](n2cnc3c(N)ncnc32)[C@H](O)[C@@H]1O (some centres undefined) was tested, and the outcome was “inactive; negative”.
With Nc1nc(=S)c2[nH]cnc2[nH]1 the outcome was “active; positive”.
With NCC(=O)O the outcome was “inactive; negative”.
C=O was tested, and the outcome was “active; positive”.
In the case of Cc1cc(-c2ccc(N=Nc3c(S(=O)(=O)O)cc4cc(S(=O)(=O)O)cc(N)c4c3O)c(C)c2)ccc1N=Nc1c(S(=O)(=O)O)cc2cc(S(=O)(=O)O)cc(N)c2c1O, the outcome is reported as “active; positive”.
With Cc1cc2nc(N)sc2cc1C the outcome was “active; positive”.
With CCCCC(CC)COC(=O)CCCCC(=O)O (centres undefined) the outcome was “inactive; negative”.
With C=CCN=C=S the outcome was “active; weakly positive”.
Oc1c(Cl)c(Cl)c(Cl)c(Cl)c1Cl was tested, and the outcome was “inactive; negative”.
For CC(=O)NBr, the outcome was “inactive; negative”.
With Oc1c(I)cc(Cl)c2cccnc12 the outcome was “inactive; negative”.
CC(C)(C)N was tested, and the outcome was “inactive; negative”.
O=C(Nc1ccc(Cl)cc1)Nc1ccc(Cl)c(Cl)c1 was tested, and the outcome was “inactive; negative”.
With O=C(Nc1ccc(Br)cc1)c1cc(Br)cc(Br)c1O the outcome was “inactive; negative”.
For CN(C)C(=O)Oc1ccc[n+](C)c1, the outcome was “inactive; negative”.
In the case of CCCCCCCCCCCCCCCCCC(=O)O, the outcome is reported as “inactive; negative”.
In the case of CC(=O)C(C)O (centres undefined), the outcome is reported as “inactive; negative”.
With COc1cc([N+](=O)[O-])ccc1N=NC(C(C)=O)C(=O)Nc1ccccc1OC (centres undefined) the outcome was “inactive; negative”.
For C=CC(C)C#N (centres undefined), the outcome was “active; weakly positive”.
With CCCCCCCC(=O)Cl the outcome was “active; positive”.
In the case of CCC(C)=NO, the outcome is reported as “active; positive”.
For O=c1cc(-c2ccc(O)cc2)oc2cc(O)cc(O)c12, the outcome was “inactive; negative”.
With Clc1ccc(Cl)c(Cl)c1 the outcome was “inactive; negative”.
COc1ccc(CN(CCN(C)C)c2ccccn2)cc1 was tested, and the outcome was “inactive; negative”.
In the case of CC1=C(/C=C/C(C)=C/C=C/C(C)=C/C=C/C=C(C)/C=C/C=C(C)/C=C/C2=C(C)CCCC2(C)C)C(C)(C)CCC1, the outcome is reported as “active; positive”.
c1ccc2c(c1)ccc1ncccc12 was tested, and the outcome was “active; positive”.
With COc1ccc(N)cc1N the outcome was “active; positive”.
In the case of CN1CCC[C@H]1c1cccnc1, the outcome is reported as “inactive; negative”.
For Nc1ccc(N)cc1, the outcome was “active; positive”.
In the case of Cc1cc(Cl)ccc1O, the outcome is reported as “inactive; negative”.
In the case of O=S(=O)([O-])[O-].[O]=[V+2], the outcome is reported as “inactive; negative”.
O=C1NC(=O)c2cc([N+](=O)[O-])ccc21 was tested, and the outcome was “active; positive”.
In the case of CCCCCCCCCCCCCCCCCC[N+](C)(C)Cc1ccccc1, the outcome is reported as “inactive; negative”.
CCCCCCCCOC(=O)c1ccccc1C(=O)OCCCCCCCC was tested, and the outcome was “inactive; negative”.
In the case of CC(=O)Nc1ccc(N)cc1, the outcome is reported as “active; positive”.
For CC(=O)NNc1ccccc1, the outcome was “active; positive”.
With NC(=S)NNC(N)=S the outcome was “inactive; negative”.
In the case of Nc1ccc(Cl)cc1[N+](=O)[O-], the outcome is reported as “active; positive”.
For Cc1cc(C)cc([N+](=O)[O-])c1, the outcome was “active; positive”.
For O=C(O)CSCC(=O)O, the outcome was “inactive; negative”.
With CC1=C(/C=C/C(C)=C/C=C/C(C)=C/C=O)C(C)(C)CCC1 the outcome was “active; positive”.
In the case of Oc1ccc2c(c1)OCO2, the outcome is reported as “inactive; negative”.
In the case of Nc1cccc(O)c1, the outcome is reported as “active; positive”.
With Cc1ccc2ncccc2c1 the outcome was “active; positive”.
In the case of O=C(Cl)c1ccccc1[N+](=O)[O-], the outcome is reported as “active; positive”.
CN1CCCC1=O was tested, and the outcome was “inactive; negative”.
With O=C(c1ccccc1)C(O)c1ccccc1 (centres undefined) the outcome was “active; weakly positive”.
For C=CC(=O)OCC1CO1 (centres undefined), the outcome was “active; positive”.
For CC(=O)OCc1ccc2c(c1)OCO2, the outcome was “inactive; negative”.
For CC(C)COC(=O)c1ccccc1N, the outcome was “inactive; negative”.
For Oc1c(Cl)cc(Cl)c(Cl)c1Cc1c(O)c(Cl)cc(Cl)c1Cl, the outcome was “inactive; negative”.
In the case of CCCCCCCCCCCC[S][Sn]([CH2]CCC)([CH2]CCC)[S]CCCCCCCCCCCC, the outcome is reported as “inactive; negative”.
For O=c1c(-c2ccc(O)cc2)coc2cc(O)cc(O)c12, the outcome was “active; positive”.
With COC(C)=O the outcome was “inactive; negative”.
With Oc1cc(Cl)c(Cl)cc1Cl the outcome was “inactive; negative”.
In the case of C[Si](C)(C)N[Si](C)(C)C, the outcome is reported as “inactive; negative”.
C=CC(=O)OCCCCCCOC(=O)C=C was tested, and the outcome was “inactive; negative”.
In the case of CN[C@@H]1[C@H](O[C@H]2[C@H](O[C@H]3[C@H](O)[C@@H](O)[C@H](NC(=N)N)[C@@H](O)[C@@H]3N=C(N)N)O[C@@H](C)[C@]2(O)C=O)O[C@@H](CO)[C@H](O)[C@H]1O, the outcome is reported as “active; weakly positive”.
With COc1cc(/C=C/C(=O)CC(=O)/C=C/c2ccc(O)c(OC)c2)ccc1O the outcome was “inactive; negative”.
For NC(=O)Nc1nc2ccccc2[nH]1, the outcome was “active; positive”.
For CCCSC(=O)Cl, the outcome was “active; positive”.
For O=C(O)c1ccc(S(=O)(=O)N(Cl)Cl)cc1, the outcome was “active; positive”.
For O=C1Nc2ccc(Cl)cc2[C@@](C#CC2CC2)(C(F)(F)F)O1, the outcome was “inactive; negative”.
O=C(CCl)c1ccccc1 was tested, and the outcome was “inactive; negative”.
CN(C)c1ccc(N=O)cc1 was tested, and the outcome was “active; positive”.
In the case of Clc1ccc(C(c2ccc(Cl)cc2)C(Cl)(Cl)Cl)cc1, the outcome is reported as “inactive; negative”.
With Nc1ccn([C@@H]2CS[C@H](CO)O2)c(=O)n1 the outcome was “inactive; negative”.
With COP(=O)(O)OC the outcome was “inactive; negative”.
For C1CCC2CCCCC2C1 (centres undefined), the outcome was “inactive; negative”.
With CC(C=O)=Cc1ccccc1 the outcome was “inactive; negative”.
O=C(O)CCCc1ccc(N(CCCl)CCCl)cc1 was tested, and the outcome was “active; positive”.
With COCOC the outcome was “inactive; negative”.
For CCC[CH2][Sn]([Cl])([Cl])[Cl], the outcome was “inactive; negative”.
With CC(=O)c1cc(C)oc1C the outcome was “active; positive”.
For O=c1cc(-c2ccccc2)oc2ccc3ccccc3c12, the outcome was “inactive; negative”.
With CN=c1ccc2nc3ccc(N)cc3sc-2c1 the outcome was “active; positive”.
c1ccc2c(c1)ccc1ccccc12 was tested, and the outcome was “active; weakly positive”.
With Cc1c(O)cccc1C(=O)N[C@@H](CSc1ccccc1)[C@H](O)CN1C[C@H]2CCCC[C@H]2C[C@H]1C(=O)NC(C)(C)C the outcome was “inactive; negative”.
With CCC(=O)C=CC1C(C)=CCCC1(C)C (centres undefined) the outcome was “inactive; negative”.
CCOP(=O)(NC(C)C)Oc1ccc(SC)c(C)c1 (centres undefined) was tested, and the outcome was “inactive; negative”.
C=CCOC(=O)CC(C)C was tested, and the outcome was “inactive; negative”.
In the case of O.O.O.O.O.O.O.O=S(=O)([O-])[O-].[Co+2], the outcome is reported as “active; weakly positive”.
For CSC(C)(C)C=NO, the outcome was “inactive; negative”.
In the case of CN(C)CCCN1c2ccccc2Sc2ccc(Cl)cc21, the outcome is reported as “inactive; negative”.
For NCCCCCCN, the outcome was “inactive; negative”.
With Nc1ccccc1C(=O)OCC=Cc1ccccc1 the outcome was “inactive; negative”.
In the case of Nc1ccc2cc(S(=O)(=O)O)c(N=Nc3ccc(-c4ccc(N=Nc5ccc(O)c(C(=O)O)c5)cc4)cc3)c(O)c2c1, the outcome is reported as “active; positive”.
CC1=C(/C=C/C(C)=C/C=C/C(C)=C/CO)C(C)(C)CCC1 was tested, and the outcome was “active; weakly positive”.
CCCCC(CC)COCC1CO1 (centres undefined) was tested, and the outcome was “active; positive”.
In the case of Cc1ccc2cc3c(ccc4ccccc43)c3c2c1CC3, the outcome is reported as “active; positive”.
CC1OC1C (centres undefined) was tested, and the outcome was “active; positive”.
CC(CO)(CO)[N+](=O)[O-] was tested, and the outcome was “inactive; negative”.
c1ccc2c(c1)CCNC2 was tested, and the outcome was “inactive; negative”.
CCCCC(CC)COC(=O)c1ccccc1C(=O)OCC(CC)CCCC (centres undefined) was tested, and the outcome was “inactive; negative”.
For Cc1ccccc1C(N)=O, the outcome was “inactive; negative”.
For CCC(C)(C)c1ccc(O)cc1, the outcome was “inactive; negative”.
With Cc1c(N(C)C)c(=O)n(-c2ccccc2)n1C the outcome was “active; weakly positive”.
For CO/N=C(\C(=O)N[C@@H]1C(=O)N2C(C(=O)O)=C(COC(N)=O)CS[C@H]12)c1ccco1, the outcome was “inactive; negative”.
In the case of CCN(CC)CCN1C(=O)CN=C(c2ccccc2F)c2cc(Cl)ccc21, the outcome is reported as “inactive; negative”.
O=C1c2c(O)ccc(O)c2C(=O)c2c(NCCO)ccc(NCCO)c21 was tested, and the outcome was “active; positive”.
With Clc1ccc(N=Nc2ccc(Cl)c(Cl)c2)cc1Cl the outcome was “active; positive”.
Cc1ccc(CO)cc1 was tested, and the outcome was “inactive; negative”.
In the case of Cc1cccc(N)c1, the outcome is reported as “inactive; negative”.
With CCOc1ccc(N)cc1 the outcome was “active; positive”.
For CCCC[N+]1(C)CCCC1, the outcome was “inactive; negative”.
For O=[N+]([O-])C(Br)=Cc1ccccc1, the outcome was “active; positive”.
With CC#N the outcome was “inactive; negative”.
For CC(C)(C)C(=O)C1C(=O)c2ccccc2C1=O, the outcome was “inactive; negative”.
O=C(O)CCCC(=O)O was tested, and the outcome was “inactive; negative”.
For CCNc1cccc(O)c1, the outcome was “active; positive”.
With CCOCCOC(C)=O the outcome was “active; positive”.
For CNC[C@H](O)c1ccc(O)c(O)c1, the outcome was “active; weakly positive”.
With Nc1cc(Cl)ccc1O the outcome was “active; weakly positive”.
For CCSCCC(N)C(=O)O (centres undefined), the outcome was “inactive; negative”.
